Reference: publication PMC6270905, “Anti-Obesity Effects of Hispidin and Alpinia zerumbet Bioactives in 3T3-L1 Adipocytes” (Molecules, 2014)
Read-outs that look alike come from different tables or passages of the source.

Molecular target: T1, pancreatic lipase (Sus scrofa, UniProt P00591)
T1 construct: gene PNLIP
T1 sequence (P00591 1-450): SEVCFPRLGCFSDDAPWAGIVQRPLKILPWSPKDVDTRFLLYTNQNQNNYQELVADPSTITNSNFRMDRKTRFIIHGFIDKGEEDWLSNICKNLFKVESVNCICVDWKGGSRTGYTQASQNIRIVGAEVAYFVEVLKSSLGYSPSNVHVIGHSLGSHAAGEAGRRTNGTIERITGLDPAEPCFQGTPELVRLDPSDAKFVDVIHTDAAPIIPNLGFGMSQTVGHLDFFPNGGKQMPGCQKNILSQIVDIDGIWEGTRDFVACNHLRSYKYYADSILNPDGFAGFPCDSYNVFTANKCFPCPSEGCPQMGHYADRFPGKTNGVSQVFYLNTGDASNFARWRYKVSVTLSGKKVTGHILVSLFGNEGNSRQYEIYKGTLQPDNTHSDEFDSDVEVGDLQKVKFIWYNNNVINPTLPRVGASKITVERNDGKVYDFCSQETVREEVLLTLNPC
Assay: p-nitrophenyl butyrate hydrolysis by porcine pancreatic lipase (type II), absorbance at […] nm
Format: biochemical

Row | Compound | IC50 [µM] | IC50 (read-out: IC50 (converted)) [µM]
1 | COc1cc(CCc2ccccc2)oc(=O)c1 [DDK, dihydro-5,6-dehydrokawain] | 36.5 | –
2 | COc1cc(/C=C/c2ccccc2)oc(=O)c1 [DK, 5,6-dehydrokawain] | – | 326
3 | O=c1cc(O)cc(/C=C/c2ccc(O)c(O)c2)o1 [hispidin, 6-(3,4-dihydroxylstyryl)-4-hydroxy-2-pyrone] | – | 76.4
